Measured values from patent publication US8148373B2, “Compounds” (AstraZeneca AB, priority 2008, dated 2012).

What was measured:
[1] = molecular target: T1, Adrenergic β2 (H292 cells) (Homo sapiens, UniProt P07550); assay: Adrenergic β2 Mediated cAMP Production, single concentration 1 μM; format: cell-based; details: percentage of the maximum response generated by 1E-07M formoterol; for activation at 1 µM: NCI-H292, 1 μM compound, read-out: β2 (% effect at 1 μM)
T1 construct: endogenous in cells; host or cells: H292 cells
Protocol: The following experimental procedure was used to measure the beta-2% effect at 1 μM for the compounds of Examples 116-263. Adrenergic β2 Mediated cAMP Production Cell Preparation
H292 cells are grown in 225 cm2 flasks incubator at 37° C., 5% CO2 in RPMI medium containing 10% (v/v) FBS (foetal bovine serum) and 2 mM L-glutamine.
Compounds were prepared by an initial first dilution into DMSO to give 1 mM stock concentration. This was followed by a 1 in 10 dilution of the stock concentration (10 μl stock compound+90 μl DMSO) to give 0.1 mM compound.
A compound addition plate was prepared by making a further 1 in 25 dilution in assay buffer (HBSS solution containing 10 mM HEPES pH7.4 and 5 mM glucose) containing 4% dimethylsulfoxide. The final compound concentration in assay is 1 μM.
Adherent H292 cells are removed from tissue culture flasks by treatment with Accutase™ cell detachment solution for 15 minutes. Flasks are incubated for 15 minutes in a humidified incubator at 37° C., 5% CO2. Detached cells are re-suspended in RPMI media (containing 10% (v/v) FBS and 2 mM L-glutamine) at 0.1×10^6 cells per mL. 10000 cells in 100 μL are added to each well of a tissue-culture-treated 96-well plate and the cells incubated overnight in a humidified incubator at 37° C., 5% CO2. The culture media is removed and cells are washed twice with 100 μL assay buffer and replaced with 50 μL assay buffer (HBSS solution containing 10 mM HEPES pH7.4 and 5 mM glucose). Cells are rested at room temperature for 20 minutes after which time 25 μL of rolipram (1.2 mM made up in assay buffer) is added. Cells are incubated with rolipram for 10 minutes after which time 25 μl test compounds are added and the cells are incubated for 60 minutes at room temperature. The final rolipram concentration in the assay is 300 μM and final vehicle concentration is 1% (v/v) dimethylsulphoxide. The reaction is stopped by removing supernatants, washing once with 100 μL assay buffer and replacing with 50 μL lysis buffer. The cell monolayer is frozen at −80° C. for 30 minutes (or overnight).
AlphaScreen™ cAMP Detection
The concentration of cAMP (cyclic adenosine monophosphate) in the cell lysate is determined using AlphaScreen™ methodology. The frozen cell plate is thawed for 20 minutes on a plate shaker then 10 μL of the cell lysate is transferred to a 96-well white plate. 40 μL of mixed AlphaScreen™ detection beads (containing equal volumes of donor beads (pre-incubated with biotinylated cAMP in the dark for 30 minutes) and acceptor beads is added to each well and the plate incubated at room temperature for 3 hours in the dark. The AlphaScreen™ signal is measured using an EnVision spectrophotometer (Perkin-Elmer Inc.) with the recommended manufacturer's settings. Concentration of cAMP produced per well were calculated with reference to the cAMP standard curve determined in the same experiment and expressed as a percentage of the maximum response generated by 1E-07M formoterol.

[2] = molecular target: T2, human muscarinic acetylcholine M3 receptor (M3-ACh) (Homo sapiens, UniProt P20309); assay: Muscarinic 3 Receptor Binding Assay, % inhibition specific binding at 1 μM; details: 1 μM compound, % inhibition specific [3H]-NMS binding
T2 construct: expressed in transfected cells; host or cells: CHO-K1 (Chinese Hamster Ovary) cell membranes
Protocol: The following experimental procedure was used to determine the M3% inhibition at 1 μM of the compounds of Examples 116-263.
Muscarinic 3 Receptor Binding Assay
The activity (% inhibition specific binding) of compounds -on the M3 receptor is determined by competition binding of [^3H]N-methyl scopolamine (NMS) to CHO-K1 (Chinese Hamster Ovary) cell membranes expressing the human muscarinic acetylcholine M3 receptor (M3-ACh) in a scintillation proximity assay (SPA) format.
SPA beads are precoated with membranes and then incubated at 2 mg of beads per well with 1 μM compound of the invention, [^3H]NMS at 0.1 nM, quarter Kd (experimentally determined dissociation constant) and assay buffer (20 mM HEPES pH 7.4 containing 5 mM MgCl2). The assay is conducted in a final volume of 200 μL, in the presence of 1% (v/v) dimethyl sulphoxide (DMSO). Total binding of [^3H]NMS is determined in the absence of competing compound and non-specific binding of [^3H]NMS is determined in the presence of 1 μM atropine. The plates are incubated for 16 hours at room temperature and then read on Wallac Microbeta™ using a normalised ^3H protocol. The compound activity at 1 defined as % inhibition specific [^3H]-NMS binding, is determined.

T2 sequence (P20309 whole entry): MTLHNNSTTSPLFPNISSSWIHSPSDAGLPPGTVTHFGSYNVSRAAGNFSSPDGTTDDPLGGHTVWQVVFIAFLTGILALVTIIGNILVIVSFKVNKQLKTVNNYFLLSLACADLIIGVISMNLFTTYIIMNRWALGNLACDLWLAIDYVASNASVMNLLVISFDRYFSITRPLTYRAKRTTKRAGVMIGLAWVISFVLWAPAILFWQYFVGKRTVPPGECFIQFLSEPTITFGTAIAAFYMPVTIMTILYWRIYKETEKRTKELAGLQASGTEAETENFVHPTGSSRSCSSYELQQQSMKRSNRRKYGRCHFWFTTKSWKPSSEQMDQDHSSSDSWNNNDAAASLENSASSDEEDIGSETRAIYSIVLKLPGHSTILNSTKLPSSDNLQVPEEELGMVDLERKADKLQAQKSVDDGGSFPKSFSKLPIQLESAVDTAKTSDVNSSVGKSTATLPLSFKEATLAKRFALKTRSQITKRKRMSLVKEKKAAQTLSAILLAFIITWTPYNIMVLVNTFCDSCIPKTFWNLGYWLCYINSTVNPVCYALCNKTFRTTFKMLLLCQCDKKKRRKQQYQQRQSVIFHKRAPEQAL
T1 sequence (P07550 whole entry): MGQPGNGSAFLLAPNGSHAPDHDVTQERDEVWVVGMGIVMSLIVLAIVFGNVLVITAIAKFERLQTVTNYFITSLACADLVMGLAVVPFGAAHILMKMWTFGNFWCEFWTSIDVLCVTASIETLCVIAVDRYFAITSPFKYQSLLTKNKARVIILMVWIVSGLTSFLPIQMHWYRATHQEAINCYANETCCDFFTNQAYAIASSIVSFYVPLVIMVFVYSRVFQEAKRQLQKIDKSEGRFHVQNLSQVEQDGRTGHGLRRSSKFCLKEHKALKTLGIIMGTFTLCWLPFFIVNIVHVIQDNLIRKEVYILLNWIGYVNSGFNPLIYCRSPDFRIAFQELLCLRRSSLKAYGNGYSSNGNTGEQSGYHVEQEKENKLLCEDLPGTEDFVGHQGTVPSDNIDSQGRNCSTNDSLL

| SMILES | activation at 1 µM [1] [%] | inhibition at 1 µM [2] [%] | β2 (% effect at 1 μM) ([1]; 1 μM compound) [%] | M3 (% inhibition at 1 μM) ([2]; 1 µM) [%] |
| --- | --- | --- | --- | --- |
| Cc1n[nH]c(CC(=O)N2CCOC3(CCN(Cc4cc(F)cc(CCNC[C@H](O)c5ccc(O)c6[nH]c(=O)sc56)c4)CC3)C2)n1 [Example 134, (R)-7-(2-(3-fluoro-5-((4-(2-(3-methyl-1H-1,2,4-triazol-5-yl)acetyl)-1-oxa-4,9-diazaspiro[5.5]undecan-9-yl)methyl)phenethylamino)-1-hydroxyethyl)-4-hydroxybenzo[d]thiazol-2(3H)-one] | 116 | 4 | – | – |
| CCn1c(=O)n(CC(=O)N2CCOC3(CCN(Cc4cc(F)cc(CCNC[C@H](O)c5ccc(O)c6[nH]c(=O)sc56)c4)CC3)C2)c2ccccc21 [Example 135, (R)-7-(2-(3-((4-(2-(3-ethyl-2-oxo-2,3-dihydro-1H-benzo[d]imidazol-1-yl)acetyl)-1-oxa-4,9-diazaspiro[5.5]undecan-9-yl)methyl)-5-fluorophenethylamino)-1-hydroxyethyl)-4-hydroxybenzo[d]thiazol-2(3H)-one] | 106 | 1 | – | – |
| COc1ccc(OC)c(C(=O)N2CCOC3(CCN(Cc4cc(F)cc(CCNC[C@H](O)c5ccc(O)c6[nH]c(=O)sc56)c4)CC3)C2)c1 [Example 136, (R)-7-(2-(3-((4-(2,5-dimethoxybenzoyl)-1-oxa-4,9-diazaspiro[5.5]undecan-9-yl)methyl)-5-fluorophenethylamino)-1-hydroxyethyl)-4-hydroxybenzo[d]thiazol-2(3H)-one] | 111 | 26 | – | – |
| O=C(c1c[nH]c2ccccc12)N1CCOC2(CCN(Cc3cc(F)cc(CCNC[C@H](O)c4ccc(O)c5[nH]c(=O)sc45)c3)CC2)C1 [Example 137, (R)-7-(2-(3-((4-(1H-indole-3-carbonyl)-1-oxa-4,9-diazaspiro[5.5]undecan-9-yl)methyl)-5-fluorophenethylamino)-1-hydroxyethyl)-4-hydroxybenzo[d]thiazol-2(3H)-one] | 112 | 13 | – | – |
| O=C(c1ccc2[nH]ccc2c1)N1CCOC2(CCN(Cc3cc(F)cc(CCNC[C@H](O)c4ccc(O)c5[nH]c(=O)sc45)c3)CC2)C1 [Example 138, (R)-7-(2-(3-((4-(1H-indole-5-carbonyl)-1-oxa-4,9-diazaspiro[5.5]undecan-9-yl)methyl)-5-fluorophenethylamino)-1-hydroxyethyl)-4-hydroxybenzo[d]thiazol-2(3H)-one] | 92 | 27 | – | – |
| Cn1c(C(=O)N2CCOC3(CCN(Cc4cc(F)cc(CCNC[C@H](O)c5ccc(O)c6[nH]c(=O)sc56)c4)CC3)C2)cc2ccccc21 [Example 139, (R)-7-(2-(3-fluoro-5-((4-(1-methyl-1H-indole-2-carbonyl)-1-oxa-4,9-diazaspiro[5.5]undecan-9-yl)methyl)phenethylamino)-1-hydroxyethyl)-4-hydroxybenzo[d]thiazol-2(3H)-one] | 101 | 34 | – | – |
| O=C(c1ccc2cc[nH]c2c1)N1CCOC2(CCN(Cc3cc(F)cc(CCNC[C@H](O)c4ccc(O)c5[nH]c(=O)sc45)c3)CC2)C1 [Example 140, (R)-7-(2-(3-((4-(1H-indole-6-carbonyl)-1-oxa-4,9-diazaspiro[5.5]undecan-9-yl)methyl)-5-fluorophenethylamino)-1-hydroxyethyl)-4-hydroxybenzo[d]thiazol-2(3H)-one] | 109 | 76 | – | – |
| CC(C)n1nnc2cc(C(=O)N3CCOC4(CCN(Cc5cc(F)cc(CCNC[C@H](O)c6ccc(O)c7[nH]c(=O)sc67)c5)CC4)C3)ccc21 [Example 142, (R)-7-(2-(3-fluoro-5-((4-(1-isopropyl-1H-benzo[d][1,2,3]triazole-5-carbonyl)-1-oxa-4,9-diazaspiro[5.5]undecan-9-yl)methyl)phenethylamino)-1-hydroxyethyl)-4-hydroxybenzo[d]thiazol-2(3H)-one] | 100 | -3 | – | – |
| Cc1ccc2nc(C)c(C(=O)N3CCOC4(CCN(Cc5cc(F)cc(CCNC[C@H](O)c6ccc(O)c7[nH]c(=O)sc67)c5)CC4)C3)n2c1 [Example 143, (R)-7-(2-(3-((4-(2,6-dimethylimidazo[1,2-a]pyridine-3-carbonyl)-1-oxa-4,9-diazaspiro[5.5]undecan-9-yl)methyl)-5-fluorophenethylamino)-1-hydroxyethyl)-4-hydroxybenzo[d]thiazol-2(3H)-one] | 108 | 2 | – | – |
| O=C(Cc1noc2ccccc12)N1CCOC2(CCN(Cc3cc(F)cc(CCNC[C@H](O)c4ccc(O)c5[nH]c(=O)sc45)c3)CC2)C1 [Example 144, (R)-7-(2-(3-((4-(2-(benzo[d]isoxazol-3-yl)acetyl)-1-oxa-4,9-diazaspiro[5.5]undecan-9-yl)methyl)-5-fluorophenethylamino)-1-hydroxyethyl)-4-hydroxybenzo[d]thiazol-2(3H)-one] | 101 | 35 | – | – |
| O=C(c1ccc(-c2ccccc2)cc1)N1CCOC2(CCN(Cc3cc(F)cc(CCNC[C@H](O)c4ccc(O)c5[nH]c(=O)sc45)c3)CC2)C1 [Example 145, (R)-7-(2-(3-((4-(biphenylcarbonyl)-1-oxa-4,9-diazaspiro[5.5]undecan-9-yl)methyl)-5-fluorophenethylamino)-1-hydroxyethyl)-4-hydroxybenzo[d]thiazol-2(3H)-one] | – | – | 53 | 7 |
| O=C(c1[nH]nc2c1CCCC2)N1CCOC2(CCN(Cc3cc(F)cc(CCNC[C@H](O)c4ccc(O)c5[nH]c(=O)sc45)c3)CC2)C1 [Example 146, (R)-7-(2-(3-fluoro-5-((4-(4,5,6,7-tetrahydro-2H-indazole-3-carbonyl)-1-oxa-4,9-diazaspiro[5.5]undecan-9-yl)methyl)phenethylamino)-1-hydroxyethyl)-4-hydroxybenzo[d]thiazol-2(3H)-one] | 96 | 41 | – | – |
| Cc1sccc1C(=O)N1CCOC2(CCN(Cc3cc(F)cc(CCNC[C@H](O)c4ccc(O)c5[nH]c(=O)sc45)c3)CC2)C1 [Example 147, (R)-7-(2-(3-fluoro-5-((4-(2-methylthiophene-3-carbonyl)-1-oxa 4,9-diazaspiro[5.5]undecan-9-yl)methyl)phenethylamino)-1-hydroxyethyl)-4-hydroxybenzo[d]thiazol-2(3H)-one] | 102 | 66 | – | – |
| O=C(c1ccc(-c2cc[nH]n2)cc1)N1CCOC2(CCN(Cc3cc(F)cc(CCNC[C@H](O)c4ccc(O)c5[nH]c(=O)sc45)c3)CC2)C1 [Example 148, (R)-7-(2-(3-((4-(4-(1H-pyrazol-3-yl)benzoyl)-1-oxa-4,9-diazaspiro[5.5]undecan-9-yl)methyl)-5-fluorophenethylamino)-1-hydroxyethyl)-4-hydroxybenzo[d]thiazol-2(3H)-one] | 104 | 4 | – | – |
